In PubChem BioAssay (NCI):
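How tested: cells in 96-well plates exposed to compound for 48 hours at five concentrations. TGI: concentration producing complete growth inhibition.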

How the values were obtained:
Assay in all cases: DTP human tumour cell line panel, 48 h
[1] = system: 786-0 renal
[2] = system: A549 NSCLC
[3] = system: ACHN renal
[4] = system: BT-549 breast
[5] = system: CAKI-1 renal
[6] = system: CCRF-CEM leukemia
[7] = system: COLO 205 colon
[8] = system: DU-145 prostate
[9] = system: EKVX NSCLC
[10] = system: HCT-116 colon
[11] = system: HCT-15 colon
[12] = system: HL-60(TB) leukemia
[13] = system: HOP-62 NSCLC
[14] = system: HOP-92 NSCLC
[15] = system: HS 578T breast
[16] = system: HT29 colon
[17] = system: IGROV1 ovarian
[18] = system: K-562 leukemia
[19] = system: KM12 colon
[20] = system: M14 melanoma
[21] = system: MALME-3M melanoma
[22] = system: MCF7 breast
[23] = system: MDA-MB-231 breast
[24] = system: MDA-MB-435
[25] = system: MDA-N
[26] = system: MOLT-4 leukemia
[27] = system: NCI-H23 lung
[28] = system: NCI-H460 lung
[29] = system: NCI-H522 lung
[30] = system: NCI/ADR-RES ovarian
[31] = system: OVCAR-5 ovarian
[32] = system: OVCAR-8 ovarian
[33] = system: PC-3 prostate
[34] = system: RPMI-8226 leukemia
[35] = system: SF-268 CNS
[36] = system: SF-295 CNS
[37] = system: SF-539 CNS
[38] = system: SK-MEL-2 melanoma
[39] = system: SK-OV-3 ovarian
[40] = system: SN12C renal
[41] = system: SNB-19 CNS
[42] = system: SR leukemia
[43] = system: SW-620 colon
[44] = system: T-47D breast
[45] = system: TK-10 renal
[46] = system: U251 CNS
[47] = system: UACC-257 melanoma
[48] = system: UACC-62 melanoma
[49] = system: UO-31 renal
[50] = system: A498 renal
[51] = system: HCC-2998 colon
[52] = system: LOX IMVI melanoma
[53] = system: NCI-H226 lung
[54] = system: OVCAR-3 ovarian
[55] = system: OVCAR-4 ovarian
[56] = system: RXF 393 renal
[57] = system: SK-MEL-28 melanoma
[58] = system: SK-MEL-5 melanoma
[59] = system: SNB-75 CNS

`Nc1cc(CO)cc(Nc2nc3ccc(Cl)cc3c3[nH]c4ccccc4c23)c1` showed a TGI [1] of 6.83 µM, a TGI [2] of 57.3 µM and a TGI [3] of 15 µM. For the same compound, the TGI [4] was 24.6 µM, the TGI [5] was 8.33 µM and the TGI [6] was 23.8 µM. It also gave a TGI [7] of 11.6 µM, a TGI [8] of 15.2 µM and a TGI [9] of 15.1 µM. The TGI [10] was 25.4 µM, the TGI [11] was 18.6 µM and the TGI [12] was 52.7 µM. For the same compound, the TGI [13] was 27.6 µM, the TGI [14] was 9.11 µM and the TGI [15] was 36.5 µM. It also gave a TGI [16] of 11.7 µM, a TGI [17] of 8.93 µM and a TGI [18] of 27.3 µM. The TGI [19] was 18.6 µM, the TGI [20] was 16.7 µM and the TGI [21] was 15.8 µM. It also gave a TGI [22] of 3.92 µM, a TGI [23] of 12 µM and a TGI [24] of 15.3 µM. For the same compound, the TGI [25] was 21.1 µM, the TGI [26] was 32.2 µM and the TGI [27] was 40 µM. It also gave a TGI [28] of 6.56 µM, a TGI [29] of 12.7 µM and a TGI [30] of 42.5 µM. For the same compound, the TGI [31] was 17.6 µM, the TGI [32] was 18.5 µM and the TGI [33] was 19.1 µM. It also gave a TGI [34] of 9.78 µM, a TGI [35] of 10.5 µM and a TGI [36] of 15 µM. For the same compound, the TGI [37] was 14.1 µM, the TGI [38] was 15 µM and the TGI [39] was 22.2 µM. The TGI [40] was 12.9 µM, the TGI [41] was 44.9 µM and the TGI [42] was 7.33 µM. The TGI [43] was 29.3 µM, the TGI [44] was 20.8 µM and the TGI [45] was 21.3 µM. It also gave a TGI [46] of 23.9 µM, a TGI [47] of 23.2 µM and a TGI [48] of 5.55 µM. For the same compound, the TGI [49] was 11.6 µM.
`CC(C)c1ccc2[nH]c(O)c(-c3[nH]c4ccccc4c3N=O)c2c1` showed a TGI [1] of 16.8 µM, a TGI [50] of 9.29 µM and a TGI [2] of 22.2 µM. It also gave a TGI [3] of 14.6 µM, a TGI [4] of 19.4 µM and a TGI [5] of 22.9 µM. The TGI [6] was 12.9 µM, the TGI [7] was 18.1 µM and the TGI [8] was 20.8 µM. For the same compound, the TGI [9] was 16.6 µM, the TGI [51] was 16.1 µM and the TGI [10] was 14 µM. It also gave a TGI [11] of 14.8 µM, a TGI [13] of 25.2 µM and a TGI [15] of 17.7 µM. It also gave a TGI [16] of 15 µM, a TGI [17] of 21.2 µM and a TGI [18] of 17.8 µM. For the same compound, the TGI [19] was 15.6 µM, the TGI [52] was 17.7 µM and the TGI [20] was 23.6 µM. The TGI [21] was 14.4 µM, the TGI [22] was 5.71 µM and the TGI [23] was 29.8 µM. It also gave a TGI [24] of 20.5 µM, a TGI [25] of 19.2 µM and a TGI [26] of 15.1 µM. For the same compound, the TGI [53] was 29.4 µM, the TGI [27] was 16.1 µM and the TGI [28] was 15.2 µM. It also gave a TGI [29] of 14.6 µM, a TGI [30] of 22 µM and a TGI [54] of 20.7 µM. It also gave a TGI [55] of 17.6 µM, a TGI [31] of 30.5 µM and a TGI [32] of 14.6 µM. The TGI [33] was 19.4 µM, the TGI [34] was 22.3 µM and the TGI [56] was 6.66 µM. The TGI [35] was 20.4 µM, the TGI [36] was 16.3 µM and the TGI [38] was 15.1 µM. It also gave a TGI [57] of 26.7 µM, a TGI [58] of 15.8 µM and a TGI [39] of 19.6 µM. It also gave a TGI [40] of 16.8 µM, a TGI [41] of 36.1 µM and a TGI [59] of 26.3 µM. The TGI [42] was 7.32 µM, the TGI [43] was 25.2 µM and the TGI [44] was 25.4 µM. The TGI [45] was 43.4 µM, the TGI [46] was 19.9 µM and the TGI [47] was 24.5 µM. It also gave a TGI [48] of 20.6 µM and a TGI [49] of 12 µM.
